Measurements taken from US6358885B1, “Substituted phenylheterocyclic herbicides” (Mississippi State University, priority 1992, dated 2002).

Key:
Experiment in all cases: Test B preemergence/postemergence greenhouse plant response rating 0 to 10
barley = assay type: in vivo, Hordeum vulgare; settings: for Plant response rating, Barley: 0 to 10 scale
How it was run: (§1)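 Postemergence treatment of plants two to eighteen cm tall ran alongside preemergence treatment of planted seed, each using compound in a non-phytotoxic solvent.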

barnyardgrass = assay type: in vivo, Echinochloa crus-galli; settings: for Plant response rating, Barnyardgrass: 0 to 10 scale
How it was run: as §1

bedstraw = assay type: in vivo, Galium aparine; settings: for Plant response rating, Bedstraw: 0 to 10 scale
How it was run: as §1

blackgrass = assay type: in vivo, Alopecurus myosuroides; settings: for Plant response rating, Blackgrass: 0 to 10 scale
How it was run: as §1

cheatgrass = assay type: in vivo, Bromus secalinus; settings: for Plant response rating, Cheatgrass: 0 to 10 scale
How it was run: as §1

chickweed = assay type: in vivo, Stellaria media; settings: for Plant response rating, Chickweed: 0 to 10 scale
How it was run: as §1

cocklebur = assay type: in vivo, Xanthium pensylvanicum; settings: for Plant response rating, Cocklebur: 0 to 10 scale
How it was run: as §1

corn = assay type: in vivo, Zea mays; settings: for Plant response rating, Corn: 0 to 10 scale
How it was run: as §1

cotton = assay type: in vivo, Gossypium hirsutum; settings: for Plant response rating, Cotton: 0 to 10 scale
How it was run: as §1

crabgrass = assay type: in vivo, Digitaria spp.; settings: for Plant response rating, Crabgrass: 0 to 10 scale
How it was run: as §1

giant foxtail = assay type: in vivo, Setaria faberii; settings: for Plant response rating, Giant foxtail: 0 to 10 scale
How it was run: as §1

lambsquarters = assay type: in vivo, Chenopodium album; settings: for Plant response rating, Lambsquarter: 0 to 10 scale
How it was run: as §1

morningglory = assay type: in vivo, Ipomoea hederacea; settings: for Plant response rating, Morningglory: 0 to 10 scale
How it was run: as §1

rape = assay type: in vivo, Brassica napus; settings: for Plant response rating, Rape: 0 to 10 scale
How it was run: as §1

rice = assay type: in vivo, Oryza sativa; settings: for Plant response rating, Rice: 0 to 10 scale
How it was run: as §1

sorghum = assay type: in vivo, Sorghum bicolor; settings: for Plant response rating, Sorghum: 0 to 10 scale
How it was run: as §1

soybean = assay type: in vivo, Glycine max; settings: for Plant response rating, Soybean: 0 to 10 scale
How it was run: as §1

sugar beet = assay type: in vivo, Beta vulgaris; settings: for Plant response rating, Sugar beet: 0 to 10 scale
How it was run: as §1

velvetleaf = assay type: in vivo, Abutilon theophrasti; settings: for Plant response rating, Velvetleaf: 0 to 10 scale
How it was run: as §1

wheat = assay type: in vivo, Triticum aestivum; settings: for Plant response rating, Wheat: 0 to 10 scale
How it was run: as §1

wild buckwheat = assay type: in vivo, Polygonum convolvulus; settings: for Plant response rating, Wild buckwheat: 0 to 10 scale
How it was run: as §1

wild oat = assay type: in vivo, Avena fatua; settings: for Plant response rating, Wild oat: 0 to 10 scale
How it was run: as §1

purple nutsedge = assay type: in vivo, Cyperus rotundus; settings: for Plant response rating, Nutsedge: 0 to 10 scale
How it was run: as §1

COCOc1cc(-c2nn3c(c2Br)CCCC3)c(F)cc1Cl [Compound 65]
8: Plant response rating, Giant foxtail (giant foxtail; Rate 200 g/ha, POSTEMERGENCE) | Plant response rating, Rape (rape; POSTEMERGENCE, Rate 50 g/ha) | Plant response rating, Soybean (soybean; Rate 200 g/ha, POSTEMERGENCE) | Plant response rating (0 to 10 scale), Wild oat (wild oat; PREEMERGENCE, Rate 200 g/ha)
4: Plant response rating, Barnyardgrass (barnyardgrass; PREEMERGENCE, Rate 50 g/ha) | Plant response rating (0 to 10 scale), Cheatgrass (cheatgrass; PREEMERGENCE, Rate 200 g/ha) | Plant response rating (0 to 10 scale), Cocklebur (cocklebur; PREEMERGENCE, Rate 200 g/ha) | Plant response rating, Corn (corn; POSTEMERGENCE, Rate 50 g/ha) | Plant response rating (0 to 10 scale), Corn (corn; PREEMERGENCE, Rate 200 g/ha) | Plant response rating (0 to 10 scale), Cotton (cotton; PREEMERGENCE, Rate 200 g/ha) | Plant response rating, Crabgrass (crabgrass; POSTEMERGENCE, Rate 50 g/ha) | Plant response rating, Nutsedge (purple nutsedge; Rate 200 g/ha, POSTEMERGENCE)
10: Plant response rating, Bedstraw (bedstraw; POSTEMERGENCE, Rate 50 g/ha) | Plant response rating, Bedstraw (bedstraw; Rate 200 g/ha, POSTEMERGENCE) | Plant response rating, Cocklebur (cocklebur; POSTEMERGENCE, Rate 50 g/ha) | Plant response rating, Cocklebur (cocklebur; Rate 200 g/ha, POSTEMERGENCE) | Plant response rating, Cotton (cotton; POSTEMERGENCE, Rate 50 g/ha) | Plant response rating, Cotton (cotton; Rate 200 g/ha, POSTEMERGENCE) | Plant response rating (0 to 10 scale), Giant foxtail (giant foxtail; PREEMERGENCE, Rate 200 g/ha) | Plant response rating, Lambsquarter (lambsquarters; POSTEMERGENCE, Rate 50 g/ha) | Plant response rating, Lambsquarter (lambsquarters; PREEMERGENCE, Rate 50 g/ha) | Plant response rating (0 to 10 scale), Lambsquarter (lambsquarters; PREEMERGENCE, Rate 200 g/ha) | Plant response rating, Lambsquarter (lambsquarters; Rate 200 g/ha, POSTEMERGENCE) | Plant response rating, Morningglory (morningglory; POSTEMERGENCE, Rate 50 g/ha) | Plant response rating, Morningglory (morningglory; Rate 200 g/ha, POSTEMERGENCE) | Plant response rating (0 to 10 scale), Rape (rape; PREEMERGENCE, Rate 200 g/ha) | Plant response rating, Sugar beet (sugar beet; POSTEMERGENCE, Rate 50 g/ha) | Plant response rating (0 to 10 scale), Sugar beet (sugar beet; PREEMERGENCE, Rate 200 g/ha) | Plant response rating, Sugar beet (sugar beet; Rate 200 g/ha, POSTEMERGENCE) | Plant response rating, Velvetleaf (velvetleaf; POSTEMERGENCE, Rate 50 g/ha) | Plant response rating, Velvetleaf (velvetleaf; Rate 200 g/ha, POSTEMERGENCE) | Plant response rating, Wild buckwheat (wild buckwheat; POSTEMERGENCE, Rate 50 g/ha) | Plant response rating, Wild buckwheat (wild buckwheat; PREEMERGENCE, Rate 50 g/ha) | Plant response rating (0 to 10 scale), Wild buckwheat (wild buckwheat; PREEMERGENCE, Rate 200 g/ha) | Plant response rating, Wild buckwheat (wild buckwheat; Rate 200 g/ha, POSTEMERGENCE)
6: Plant response rating, Barley (barley; Rate 200 g/ha, POSTEMERGENCE) | Plant response rating, Cheatgrass (cheatgrass; Rate 200 g/ha, POSTEMERGENCE) | Plant response rating, Giant foxtail (giant foxtail; PREEMERGENCE, Rate 50 g/ha) | Plant response rating, Rice (rice; Rate 200 g/ha, POSTEMERGENCE) | Plant response rating, Sorghum (sorghum; POSTEMERGENCE, Rate 50 g/ha) | Plant response rating, Wheat (wheat; POSTEMERGENCE, Rate 50 g/ha)
7: Plant response rating, Barnyardgrass (barnyardgrass; POSTEMERGENCE, Rate 50 g/ha) | Plant response rating, Blackgrass (blackgrass; POSTEMERGENCE, Rate 50 g/ha) | Plant response rating, Blackgrass (blackgrass; PREEMERGENCE, Rate 50 g/ha) | Plant response rating (0 to 10 scale), Blackgrass (blackgrass; PREEMERGENCE, Rate 200 g/ha) | Plant response rating, Blackgrass (blackgrass; Rate 200 g/ha, POSTEMERGENCE) | Plant response rating, Crabgrass (crabgrass; Rate 200 g/ha, POSTEMERGENCE) | Plant response rating, Sorghum (sorghum; Rate 200 g/ha, POSTEMERGENCE) | Plant response rating, Wild oat (wild oat; POSTEMERGENCE, Rate 50 g/ha) | Plant response rating, Wild oat (wild oat; Rate 200 g/ha, POSTEMERGENCE)
0: Plant response rating, Barley (barley; PREEMERGENCE, Rate 50 g/ha) | Plant response rating, Cocklebur (cocklebur; PREEMERGENCE, Rate 50 g/ha) | Plant response rating, Corn (corn; PREEMERGENCE, Rate 50 g/ha) | Plant response rating, Cotton (cotton; PREEMERGENCE, Rate 50 g/ha) | Plant response rating, Morningglory (morningglory; PREEMERGENCE, Rate 50 g/ha) | Plant response rating, Rape (rape; PREEMERGENCE, Rate 50 g/ha) | Plant response rating, Sorghum (sorghum; PREEMERGENCE, Rate 50 g/ha) | Plant response rating (0 to 10 scale), Sorghum (sorghum; PREEMERGENCE, Rate 200 g/ha) | Plant response rating, Soybean (soybean; PREEMERGENCE, Rate 50 g/ha) | Plant response rating, Wheat (wheat; PREEMERGENCE, Rate 50 g/ha) | Plant response rating, Nutsedge (purple nutsedge; PREEMERGENCE, Rate 50 g/ha) | Plant response rating (0 to 10 scale), Nutsedge (purple nutsedge; PREEMERGENCE, Rate 200 g/ha)
1: Plant response rating, Chickweed (chickweed; PREEMERGENCE, Rate 50 g/ha) | Plant response rating, Rice (rice; PREEMERGENCE, Rate 50 g/ha)
5: Plant response rating, Bedstraw (bedstraw; PREEMERGENCE, Rate 50 g/ha) | Plant response rating (0 to 10 scale), Bedstraw (bedstraw; PREEMERGENCE, Rate 200 g/ha) | Plant response rating, Chickweed (chickweed; POSTEMERGENCE, Rate 50 g/ha) | Plant response rating, Corn (corn; Rate 200 g/ha, POSTEMERGENCE) | Plant response rating, Giant foxtail (giant foxtail; POSTEMERGENCE, Rate 50 g/ha) | Plant response rating, Rice (rice; POSTEMERGENCE, Rate 50 g/ha) | Plant response rating (0 to 10 scale), Wheat (wheat; PREEMERGENCE, Rate 200 g/ha) | Plant response rating, Wheat (wheat; Rate 200 g/ha, POSTEMERGENCE)
2: Plant response rating (0 to 10 scale), Barley (barley; PREEMERGENCE, Rate 200 g/ha) | Plant response rating, Cheatgrass (cheatgrass; PREEMERGENCE, Rate 50 g/ha) | Plant response rating, Crabgrass (crabgrass; PREEMERGENCE, Rate 50 g/ha) | Plant response rating (0 to 10 scale), Crabgrass (crabgrass; PREEMERGENCE, Rate 200 g/ha) | Plant response rating (0 to 10 scale), Morningglory (morningglory; PREEMERGENCE, Rate 200 g/ha) | Plant response rating (0 to 10 scale), Soybean (soybean; PREEMERGENCE, Rate 200 g/ha) | Plant response rating, Wild oat (wild oat; PREEMERGENCE, Rate 50 g/ha)
3: Plant response rating, Barley (barley; POSTEMERGENCE, Rate 50 g/ha) | Plant response rating, Cheatgrass (cheatgrass; POSTEMERGENCE, Rate 50 g/ha) | Plant response rating (0 to 10 scale), Chickweed (chickweed; PREEMERGENCE, Rate 200 g/ha) | Plant response rating (0 to 10 scale), Rice (rice; PREEMERGENCE, Rate 200 g/ha) | Plant response rating, Nutsedge (purple nutsedge; POSTEMERGENCE, Rate 50 g/ha)
9: Plant response rating (0 to 10 scale), Barnyardgrass (barnyardgrass; PREEMERGENCE, Rate 200 g/ha) | Plant response rating, Barnyardgrass (barnyardgrass; Rate 200 g/ha, POSTEMERGENCE) | Plant response rating, Chickweed (chickweed; Rate 200 g/ha, POSTEMERGENCE) | Plant response rating, Rape (rape; Rate 200 g/ha, POSTEMERGENCE) | Plant response rating, Sugar beet (sugar beet; PREEMERGENCE, Rate 50 g/ha) | Plant response rating, Velvetleaf (velvetleaf; PREEMERGENCE, Rate 50 g/ha) | Plant response rating (0 to 10 scale), Velvetleaf (velvetleaf; PREEMERGENCE, Rate 200 g/ha)
